PMC8989696, “Characterization of furathiocarb metabolism in in-vitro human liver microsomes and recombinant cytochrome P450 enzymes” (Toxicology Reports, 2022)
Like-named read-outs stand apart in the source and are kept apart here.

Tests used:
CYP2C9 = conditions: read-out: IC50, CYP2C9; range given jointly for CYP2C9, 2C19 and CYP2D6; no reference given; cited from earlier work
CYP3A4 [1] = conditions: cited from earlier work
CYP2D6 = conditions: cited from earlier work
2C19 = conditions: read-out: IC50, 2C19; range given jointly for CYP2C9, 2C19 and CYP2D6; no reference given; cited from earlier work
[2] = Furathiocarb biotransformation kinetics in individual human hepatic microsomes (10 donors); format: in vitro ADME; conditions: for Variation between the highest and lowest formation rate / Metabolite formation rate (lowest to highest of 10 donors): at 300 µM furathiocarb; for Variation between the highest and lowest formation rate: 10 donors; for Metabolite formation rate (lowest to highest of 10 donors): individual human hepatic microsomes
Experimental: The incubation mixture (ﬁnal volume of 200 µl of 0.1 M phosphate buffer) contained 50 and 100 µM furathiocarb, 0.15 mg pooled liver microsomal protein (n = 10), and 1 mM NADPH. The reaction was initiated by NADPH after a 2 min pre-incubation at + 37 °C and was incubated for 30 min at + 37 °C. The reaction stopped with ice-cold acetonitrile containing an internal standard.
Enzyme kinetic parameters of both the microsomal samples and rCYP enzymes were measured. The incubation mixture contained furathiocarb (2.5, 10, 25, 50, 150 and 300 µM). Incubation times were 20 and 30 min for microsomal samples and rCYPs, respectively. Otherwise incubation mixtures and methods were the same as in metabolite identification. The rate of sum of furathiocarb metabolite formation was linear at least up to 0.15 mg protein/ml and 30 min incubation time in the standard experimental conditions.
The standard incubation mixture contained 50 and 100 µM furathiocarb, 0.15 mg pooled liver microsomal protein (n = 10), and 1 mM NADPH in a ﬁnal volume of 200 µl of 0.1 M phosphate buffer (pH 7.4). Furathiocarb was prepared once a week in dimethylsulfoxide (DMSO; ﬁnal amount in the reaction medium 1.0%). After a 2-min incubation at +37 ◦C in a shaking incubator block, the reaction was started by adding NADPH. The mixture was incubated at +37 ◦C for 30 min and the reaction was stopped with 600 µl of ice-cold acetonitrile containing an internal standard. All incubations were carried out in triplicate.

CYP3A4 [3] = assay: in vitro; conditions: ketoconazole 100 µM, pooled human hepatic microsomes
Experimental: Formation rates of metabolites were determined in the presence or absence of ketoconazole 100 µM.
Each point represents the mean ± S.D of three separate determinations.

[4] = 54; cited from earlier work
2B6 = conditions: read-out: IC50, CYP 2B6; cited from earlier work
CYPs 1A1/2 = conditions: read-out: IC50, CYP 1A1/2; cited from earlier work
[5] = read-out: IC50, CYP3A4 (MDZ-OH)

SMILES: CCCCN(CCCC)SN(C)C(=O)Oc1cccc2c1OC(C)(C)C2 [Carbosulfan]
- IC50 (CYP2C9): 16 to 25 µM
- IC50 (CYP3A4 [1]; [5]): 11.2 µM
- IC50 (CYP2D6; read-out: IC50, CYP2D6, range given jointly for CYP2C9, 2C19 and CYP2D6, no reference given): 16 to 25 µM
- IC50 (2C19): 16 to 25 µM

SMILES: CC1(C)Cc2cccc(O)c2O1 [7-phenolcarbofuran]
- Variation between the highest and lowest formation rate [2]: 2 fold
- Metabolite formation rate (lowest to highest of 10 donors) [2]: 4.5–8.3 nmol/(mg protein min)

SMILES: CNC(=O)Oc1cccc2c1OC(C)(C)C2=O [3-ketocarbofuran]
- Variation between the highest and lowest formation rate [2]: 54.4 fold
- Metabolite formation rate (lowest to highest of 10 donors) [2]: 0.28–15.6 nmol/(mg protein min)

SMILES: CC(=O)N1CCN(c2ccc(OCC3COC(Cn4ccnc4)(c4ccc(Cl)cc4Cl)O3)cc2)CC1 (stereo not drawn) [Ketoconazole]
- inhibition at 20 min, 100 µM (CYP3A4 [3]; human, microsomes, Inhibition of carbofuran metabolic pathway formation, various furathiocarb concentrations): 32 to 86%
- Effect on the formation of metabolite A (CYP3A4 [3]): no effects

SMILES: CC1(C)Oc2c(O)cccc2C1O (stereo not drawn) [3-hydroxy-7-phenolcarbofuran]
- Variation between the highest and lowest formation rate [2]: 23 fold
- Metabolite formation rate (lowest to highest of 10 donors) [2]: 0.02–0.52 nmol/(mg protein min)

SMILES: CNC(=O)Oc1cccc2c1OC(C)(C)C2 [Carbofuran, carbofuran]
- Toxic class, WHO classification of pesticides by hazard [4]: 1b

SMILES: CCOP(=S)(OCC)Oc1nc(Cl)c(Cl)cc1Cl [Chlorpyrifos]
- IC50 (CYP3A4 [1]; read-out: IC50, CYP 3A4): 4 µM
- IC50 (2B6): 2.5 µM
- IC50 (CYPs 1A1/2): 2.9 µM
- IC50 (CYP2D6; read-out: IC50, CYP 2D6): 3.3 µM

SMILES: CNC(=O)Oc1cccc2c1OC(C)(C)C2O (stereo not drawn) [3-hydroxycarbofuran]
- Variation between the highest and lowest formation rate [2]: 10 fold
- Metabolite formation rate (lowest to highest of 10 donors) [2]: 0.68 to 6.83 nmol/(mg protein min)

SMILES: CC1(C)Oc2c(O)cccc2C1=O [3-keto-7-phenolcarbofuran]
- Metabolite amounts formed in HLM31 ([2]; HLM31, all furathiocarb concentrations used): below the limits of quantiﬁcation

SMILES: CCOC(=O)CCN(SN(C)C(=O)Oc1cccc2c1OC(C)(C)C2)C(C)C [benfuracarb]
- IC50 (CYP3A4 [1]; [5]): 14.8 µM
